Laboratory results reported in ChEMBL document CHEMBL2157998, “Synthesis and biological evaluation of new phenothiazine derivatives bearing a pyrazole unit as protein farnesyltransferase inhibitors” (Bioorg Med Chem Lett, 2012).
Activity calls are given as the source filed them. The rule behind the calls is not given here.

Tests used:
[1] = molecular target: T1, Protein farnesyltransferase (Homo sapiens, UniProt P49354+P49356); assay: Inhibition of recombinant human FTase using dansyl-GCVLS as substrate at 100 uM after 15 mins by fluorimetric analysis; type: protein-complex assay
[2] = molecular target: T1, Protein farnesyltransferase; assay: Inhibition of recombinant human FTase using dansyl-GCVLS as substrate after 15 mins by fluorimetric analysis; type: protein-complex assay
CCRF-CEM = assay: Growth inhibition of human CCRF-CEM cells at 10 uM after 48 hrs by single dose SRB assay; type: functional; conditions: read-out: GI
HL-60(TB) = assay: Growth inhibition of human HL-60(TB) cells at 10 uM after 48 hrs by single dose SRB assay; type: functional
MOLT-4 = assay: Growth inhibition of human MOLT4 cells at 10 uM after 48 hrs by single dose SRB assay; type: functional; conditions: MOLT-4, 48 h, read-out: GI
RPMI-8226 = assay: Growth inhibition of human RPMI8226 cells at 10 uM after 48 hrs by single dose SRB assay; type: functional
SF-295 = assay: Growth inhibition of human SF295 cells at 10 uM after 48 hrs by single dose SRB assay; type: functional; conditions: SF-295, 48 h, read-out: GI
SNB-19 = assay: Growth inhibition of human SNB19 cells at 10 uM after 48 hrs by single dose SRB assay; type: functional; conditions: SNB-19, 48 h, read-out: GI
U-251 = assay: Growth inhibition of human U251 cells at 10 uM after 48 hrs by single dose SRB assay; type: functional; conditions: U-251, 48 h, read-out: GI
[3] = Growth inhibition of human […] cells at 10 uM after 48 hrs by single dose SRB assay; type: functional; conditions: read-out: GI
HCT-15 = assay: Growth inhibition of human HCT15 cells at 10 uM after 48 hrs by single dose SRB assay; type: functional; conditions: HCT-15, 48 h, read-out: GI
HT-29 = assay: Growth inhibition of human HT-29 cells at 10 uM after 48 hrs by single dose SRB assay; type: functional; conditions: HT-29, 48 h, read-out: GI
SW-620 = assay: Growth inhibition of human SW620 cells at 10 uM after 48 hrs by single dose SRB assay; type: functional; conditions: SW-620, 48 h, read-out: GI
EKVX = assay: Growth inhibition of human EKVX cells at 10 uM after 48 hrs by single dose SRB assay; type: functional; conditions: read-out: GI
NCI-H226 = assay: Growth inhibition of human NCI-H226 cells at 10 uM after 48 hrs by single dose SRB assay; type: functional; conditions: NCI-H226, 48 h, read-out: GI
HOP-92 = assay: Growth inhibition of human HOP92 cells at 10 uM after 48 hrs by single dose SRB assay; type: functional
NCI-H522 = assay: Growth inhibition of human NCI-H522 cells at 10 uM after 48 hrs by single dose SRB assay; type: functional; conditions: NCI-H522, 48 h, read-out: GI
LOX IMVI = assay: Growth inhibition of human LOXIMVI cells at 10 uM after 48 hrs by single dose SRB assay; type: functional; conditions: read-out: GI
SK-MEL-5 = assay: Growth inhibition of human SK-MEL-5 cells at 10 uM after 48 hrs by single dose SRB assay; type: functional; conditions: SK-MEL-5, 48 h, read-out: GI
UACC-62 = assay: Growth inhibition of human UACC62 cells at 10 uM after 48 hrs by single dose SRB assay; type: functional; conditions: UACC-62, 48 h, read-out: GI
ACHN = assay: Growth inhibition of human ACHN cells at 10 uM after 48 hrs by single dose SRB assay; type: functional; conditions: read-out: GI
SN12C = assay: Growth inhibition of human SN12C cells at 10 uM after 48 hrs by single dose SRB assay; type: functional; conditions: read-out: GI
A498 = assay: Growth inhibition of human A498 cells at 10 uM after 48 hrs by single dose SRB assay; type: functional; conditions: A498, 48 h, read-out: GI
CAKI-1 = assay: Growth inhibition of human Caki1 cells at 10 uM after 48 hrs by single dose SRB assay; type: functional; conditions: CAKI-1, 48 h, read-out: GI
UO-31 = assay: Growth inhibition of human UO31 cells at 10 uM after 48 hrs by single dose SRB assay; type: functional; conditions: UO-31, 48 h, read-out: GI
OVCAR-3 = assay: Growth inhibition of human OVCAR3 cells at 10 uM after 48 hrs by single dose SRB assay; type: functional; conditions: OVCAR-3, 48 h, read-out: GI
OVCAR-8 = assay: Growth inhibition of human OVCAR8 cells at 10 uM after 48 hrs by single dose SRB assay; type: functional; conditions: OVCAR-8, 48 h, read-out: GI
NCI/ADR-RES = assay: Growth inhibition of human NCI/ADR-RES cells at 10 uM after 48 hrs by single dose SRB assay; type: functional; conditions: read-out: GI
PC-3 = assay: Growth inhibition of human PC3 cells at 10 uM after 48 hrs by single dose SRB assay; type: functional; conditions: PC-3, 48 h, read-out: GI
MDA-MB-231 = assay: Growth inhibition of human MDA-MB-231 cells at 10 uM after 48 hrs by single dose SRB assay; type: functional; conditions: MDA-MB-231, 48 h, read-out: GI
MDA-MB-468 = assay: Growth inhibition of human MDA-MB-468 cells at 10 uM after 48 hrs by single dose SRB assay; type: functional; conditions: MDA-MB-468, 48 h, read-out: GI

For `Cc1c2c(nn1CC(=O)N1c3ccccc3Sc3ccccc31)-c1ccccc1C2=O`, the inhibition [1] was 67.7%, the IC50 [2] was 3.35 µM and the inhibition of growth at 10 µM (CCRF-CEM) was 12.1%. For the same compound, the “growth inhibition (GI)” value (HL-60(TB)) was “inactive”, the inhibition of growth at 10 µM (MOLT-4) was 25.4% and the “growth inhibition (GI)” value (RPMI-8226) was “inactive”. The inhibition of growth at 10 µM (SF-295) was 35.8%, the inhibition of growth at 10 µM (SNB-19) was 35.7% and the inhibition of growth at 10 µM (U-251) was 24.8%. The inhibition of growth at 10 µM [3] was 55.7%, the inhibition of growth at 10 µM (HCT-15) was 23% and the inhibition of growth at 10 µM (HT-29) was 17.7%. For the same compound, the inhibition of growth at 10 µM (SW-620) was 23.8%, the inhibition of growth at 10 µM (EKVX) was 39.9% and the inhibition of growth at 10 µM (NCI-H226) was 25.3%. For the same compound, the “growth inhibition (GI)” value (HOP-92) was “inactive”, the inhibition of growth at 10 µM (NCI-H522) was 9.6% and the inhibition of growth at 10 µM (LOX IMVI) was 54.8%. The inhibition of growth at 10 µM (SK-MEL-5) was 51.4%, the inhibition of growth at 10 µM (UACC-62) was 31.2% and the inhibition of growth at 10 µM (ACHN) was 29.7%. For the same compound, the inhibition of growth at 10 µM (SN12C) was 34.8%, the inhibition of growth at 10 µM (A498) was 19.4% and the inhibition of growth at 10 µM (CAKI-1) was 38.3%. The inhibition of growth at 10 µM (UO-31) was 29.5%, the inhibition of growth at 10 µM (OVCAR-3) was 29.7% and the inhibition of growth at 10 µM (OVCAR-8) was 28.2%. The inhibition of growth at 10 µM (NCI/ADR-RES) was 33.5%, the inhibition of growth at 10 µM (PC-3) was 31% and the inhibition of growth at 10 µM (MDA-MB-231) was 27.8%. It also gave an inhibition of growth at 10 µM (MDA-MB-468) of 37.6%.
